{
  "source": "patent US20130123287A1",
  "about": "“CONTROL AGENT FOR SOFT ROT AND CONTROL METHOD FOR THE SAME” (ISHIHARA SANGYO KAISHA, LTD., priority 2010, published 2013)",
  "key": {"[1]": {"tested_on": "bacteria causing the soft rot (Erwinia carotovora)", "assay": "Inhibition test of growth of bacteria causing soft rot, Reference Test Example 2", "assay_type": "cell-based", "conditions": "for formed colonies (growth state), grade: PSA medium, 27 degrees Celsius, 2 days", "excerpt": "(§1) Inhibition test of growth of bacteria causing soft rot of potato An inhibition test of the growth of bacteria causing the soft rot was done, when a control agent was directly applied to the bacteria causing the soft rot. A given volume of each pesticide of azoxystrobin (Amistar-20 FLOWABLE [trade name], manufactured by Syngenta Japan K.K.), penthiopyrad (GAIA WG [trade name], manufactured by Mitsui Chemicals Agro, Inc.), flusulfamide (SCABLOCK SC [trade name] manufactured by Mitsui Chemicals Agro, Inc.), and streptomycin (Mycin Wettable powder [trade name] manufactured by Hokko Chemical Industry Co., Ltd.) was added together with a suspension of the bacteria causing the soft rot (Erwinia carotovora) to a preliminarily dissolved PSA culture medium (55 degrees Celsius) for subsequent thorough agitation, which was then spread on a plate for culturing at 27 degrees Celsius for 2 days, to examine the growth state. Subsequently, the formed colonies were examined according to the following three grades. • +: at the same level as the level of non-treated lot.\nPlus or minus: apparently less than the colonies of the non-treated lot. • −: almost no colonies observed."}, "[2]": {"tested_on": "bacteria causing the soft rot (Erwinia carotovora)", "assay": "Inhibition test of growth of bacteria causing soft rot, Reference Test Example 3", "assay_type": "cell-based", "conditions": "for formed colonies (growth state), grade: PSA medium, 27 degrees Celsius, 2 days", "excerpt": "as §1, with “triflumizol (TRIFUMIN WP [trade name] manufactured by Nippon Soda Co., Ltd.), chlorothalonil (Daconil 1000” for “azoxystrobin (Amistar-20 FLOWABLE”, “Sumitomo Chemical Company, Limited)” for “Syngenta Japan K.K.), penthiopyrad (GAIA WG [trade name], manufactured by Mitsui Chemicals Agro, Inc.), flusulfamide (SCABLOCK SC [trade name] manufactured by Mitsui Chemicals Agro, Inc.),”, “lot. Plus or minus: apparently less than the colonies of the non-treated lot. • −: almost no colonies observed.” for “lot.”"}},
  "data": [
    {"smiles": "[H]/N=C(/N)N[C@H]1[C@H](O)[C@@H](O)[C@H](O[C@@H]2O[C@@H](C)[C@](O)(C=O)[C@H]2O[C@@H]2O[C@@H](CO)[C@H](O)[C@@H](O)[C@@H]2NC)[C@@H](N/C(N)=N\\[H])[C@@H]1O", "note": "[Streptomycin]", "values": [
      {"measurement": "formed colonies (growth state), grade", "setting": "[1]; 1 ppm active ingredient", "result": "−, −"},
      {"measurement": "formed colonies (growth state), grade", "setting": "[1]; 10 ppm active ingredient", "result": "−, −"},
      {"measurement": "direct antibacterial activity against Erwinia carotovora (in words)", "setting": "[1]; active ingredient concentration of 1 ppm", "result": "exerted a direct antibacterial activity"},
      {"measurement": "formed colonies (growth state), grade", "setting": "[2]; 1 ppm active ingredient", "result": "+, ±"},
      {"measurement": "formed colonies (growth state), grade", "setting": "[2]; 10 ppm active ingredient", "result": "−, −"},
      {"measurement": "direct antibacterial activity against Erwinia carotovora (in words)", "setting": "[2]; active ingredient concentration of 10 ppm", "result": "exerted a direct antibacterial activity"}
    ]}
  ]
}
